The values below come from PMC10999085, “Synthesis, anticancer evaluation, molecular docking and ADME study of novel pyrido[4ʹ,3ʹ:3,4]pyrazolo[1,5-a]pyrimidines as potential tropomyosin receptor kinase A (TrKA) inhibitors” (BMC Chemistry, 2024).

Converted amounts (≈) assume the structure as drawn.

In one data set the test system is MCF7 cell line. Nature of the data set: MTT assay, MCF7 cell line. Particulars: 24 hr treatment, in % (unit assumed); for Cytotoxicity at 5 µg/l: MCF7, 5 µg/l; for Cytotoxicity at 10 µg/l: MCF7, 10 µg/l; for Cytotoxicity at 20 µg/l: MCF7, 20 µg/l. The data set is classed as cell-based, human. The method, then:
(§1) Determination of the inhibitory effects of compounds on cell growth was performed through the MTT assay. This colorimetric assay is based on the conversion of the yellow tetrazolium bromide (MTT) to a purple formazan derivative by mitochondrial succinate dehydrogenase in viable cells. The protocol was discussed in details in Additional file 1.
(§2) Compounds 1, 4a,b, 7a–c, 7k, l, 9a–c, 14a, 15b, 16a–c were selected to be investigated against three human cancer cell lines MCF7, HepG2 and HCT116 cell lines using MTT assay using doxorubicin as the standard drug. Each point is the mean ± SD (standard deviation) of three independent experiments performed in triplicate, using the prism software program (integrated Graphpad software, version 3).
(§3) Cell lines were used to measure the cell growth effects of the compounds using the MTT assay. This colorimetric assay is depend on the conversion of the yellow tetrazolium bromide (MTT) to a purple formazan derivative by mitochondrial succinate dehydrogenase in living cells. Cell lines were cultured in RPMI-1640 medium supplemented with 10% fetal bovine serum. The antibiotics added were 100 units/ml penicillin and 100 µg/ml streptomycin at 37 °C in a 5% CO2 incubator. Cell lines were seeded in a 96-well plates at a density of 1.0x10^4 cells/well and cultured at 37 °C for 48 h under 5% CO2. After incubation, the cells were treated with different concentrations of compounds and incubated for 24 hr. After 24 hr of drug treatment, 20 µl of MTT solution at 5 mg/ml was added to each well and incubated for 4 hr. 100 µl of dimethyl sulfoxide (DMSO) was added into each well to dissolve the purple formazan formed. The colorimetric assay was measured and recorded at absorbance of 570 nm using a plate reader (EXL 800, USA). Relative cell viability (%) was calculated as (A570 of treated sample/A570 of untreated sample) x 100 [36, 37].
For orientation: Tetrazolium assays rely on reduction of a dye to a coloured formazan, in cell work by metabolically active cells.

A further data set concerns HepG2 cell line. As to the kind of experiment: MTT assay, HepG2 cell line. Particulars: for Cytotoxicity at 5 µg/l: HepG2, 5 µg/l; for Cytotoxicity at 5 µg/l / Cytotoxicity at 10 µg/l / Cytotoxicity at 20 µg/l: MTT, 24 hr treatment, in % (unit assumed); for Cytotoxicity at 10 µg/l: HepG2, 10 µg/l; for Cytotoxicity at 20 µg/l: HepG2, 20 µg/l. The class given is cell-based, human. How it is done:
as §1, §2, §3

A further data set deals with HCT-116 cell line. As to the kind of experiment: MTT assay, HCT-116 cell line. The data set is classed as cell-based, human. The note with it: for Cytotoxicity at 5 µg/l: HCT116, 5 µg/l; for Cytotoxicity at 5 µg/l / Cytotoxicity at 10 µg/l / Cytotoxicity at 20 µg/l: MTT, 24 hr treatment, in % (unit assumed); for Cytotoxicity at 10 µg/l: HCT116, 10 µg/l; for Cytotoxicity at 20 µg/l: HCT116, 20 µg/l. The method, then: as §1, §2, §3

For orientation: melting point means the temperature of the solid-liquid transition. Consider `COc1ccc(NN=C2C(=O)NC(=O)c3c2nn2c(O)cc(-c4ccccc4)nc32)cc1` [Compound 16g, 4-Hydroxy-7-(2-(4-methoxyphenyl)hydrazono)-2-phenylpyrido[4ʹ,3ʹ:3,4]pyrazolo[1,5-a]pyrimidine-8,10(7H,9H)-dione], for which the melting point worked out at 323 °C.
Consider `COc1cccc2c1C(=O)c1c(O)c3c(c(O)c1C2=O)C[C@@](O)(C(=O)CO)C[C@@H]3O[C@H]1C[C@H](N)[C@H](O)[C@H](C)O1` [Doxo, Doxorubicin, reference compound], for which the “Cytotoxicity at 5 µg/l” value is recorded as 75.43 with MCF7 cell line, 53.46 in the data set with HepG2 cell line and 62.14 with HCT-116 cell line. For the same compound, the results for the “Cytotoxicity at 10 µg/l” value in the data set on MCF7 cell line, with HepG2 cell line and with HCT-116 cell line were 89.14, 68.59 and 77.18, respectively. For the same compound, the entries for the “Cytotoxicity at 20 µg/l” value in the data set on MCF7 cell line, in the data set with HepG2 cell line and in the data set on HCT-116 cell line were 98.19, 91.13 and 95.26, respectively. The IC50 with HepG2 cell line (Homo sapiens, HepG2, MTT, read-out: IC50 (drug concentration that inhibited 50% of cell proliferation)) stood at 4.75 ng/mL (≈ 8.74 nM); in the data set on HCT-116 cell line (Homo sapiens, HCT-116, HCT116, MTT, read-out: IC50 (drug concentration that inhibited 50% of cell proliferation)) it was 3.64 ng/mL (≈ 6.7 nM).
With `Cc1cc(C)n2nc3c(c2n1)C(=O)NC(=O)C3=NNc1ccc(Cl)cc1` [Compound 9d, 7-(2-(4-Chlorophenyl)hydrazono)-2,4-dimethylpyrido[4ʹ,3ʹ:3,4]pyrazolo[1,5-a]pyrimidine-8,10(7H,9H)-dione], the melting point was 300 °C.
The compound `O=C1NC(=O)c2c(nn3c(-c4ccccc4)cc(-c4ccccc4)nc23)C1=Cc1ccc(Cl)cc1` [Compound 7m, 7-(4-Chlorobenzylidene)-2,4-diphenylpyrido[4ʹ,3ʹ:3,4]pyrazolo[1,5-a]pyrimidine-8,10(7H,9H)-dione] yielded a melting point of 320 °C.
For the compound `Cc1ccc(NN=C2C(=O)NC(=O)c3c2nn2c(-c4ccccc4)cc(-c4ccccc4)nc32)cc1` [Compound 11b, 2,4-Diphenyl-7-(2-(p-tolyl)hydrazono)pyrido[4ʹ,3ʹ:3,4]pyrazolo[1,5-a]pyrimidine-8,10(7H,9H)-dione], the melting point worked out at 320 °C.
In turn, `COc1ccc(OC)c(C=C2C(=O)NC(=O)c3c2nn2c(-c4ccccc4)cc(-c4ccccc4)nc32)c1` [Compound 7o, 7-(2,5-Dimethoxybenzylidene)-2,4-diphenylpyrido[4ʹ,3ʹ:3,4]pyrazolo[1,5-a]pyrimidine-8,10(7H,9H)-dione] registered a melting point of 275 °C.
For `Nc1n[nH]c2c1C(=O)NC(=O)C2` [Compound 1, 3-amino-1,7-dihydro-4H-pyrazolo[4,3-c]pyridine-4,6(5H)-dione], the “Cytotoxicity at 5 µg/l” value in the data set on MCF7 cell line is 31.71; in the data set with HepG2 cell line, 43.17; in the data set with HCT-116 cell line, 16.23. Also, the “Cytotoxicity at 10 µg/l” value was found to be 61.39 in the data set with MCF7 cell line, 53.18 with HepG2 cell line and 52.09 with HCT-116 cell line. Also, the “Cytotoxicity at 20 µg/l” value in the data set with MCF7 cell line is listed as 73.65; in the data set on HepG2 cell line, 65.34; with HCT-116 cell line, 71.08.
In turn, `O=C1NC(=O)c2c(nn3c(O)cc(-c4ccccc4)nc23)C1=Cc1ccc(Cl)cc1` [Compound 15f, 7-(4-Chlorobenzylidene)-4-hydroxy-2-phenylpyrido[4ʹ,3ʹ:3,4]pyrazolo[1,5-a]pyrimidine-8,10(7H,9H)-dione] displayed a melting point of 330 °C.
On the same count and under the same terms, the value for `O=C1NC(=O)c2c(nn3c(-c4ccccc4)cc(-c4ccccc4)nc23)C1=Cc1ccccc1O` [Compound 7n, 7-(2-Hydroxybenzylidene)-2,4-diphenylpyrido[4ʹ,3ʹ:3,4]pyrazolo[1,5-a]pyrimidine-8,10(7H,9H)-dione] was 275 °C; that for `O=C1NC(=O)c2c(nn3c(-c4ccccc4)cc(-c4ccccc4)nc23)C1=Cc1cccs1` [Compound 7s, 2,4-Diphenyl-7-(thiophen-2-ylmethylene)pyrido[4ʹ,3ʹ:3,4]pyrazolo[1,5-a]pyrimidine-8,10(7H,9H)-dione] was 315 °C.
Same read-out and setting: under `O=C1NC(=O)c2c(nn3c(O)cc(-c4ccccc4)nc23)C1=NNc1ccccc1` [Compound 16e, 4-Hydroxy-2-phenyl-7-(2-phenylhydrazono)pyrido[4ʹ,3ʹ:3,4]pyrazolo[1,5-a]pyrimidine-8,10(7H,9H)-dione] stands 300 °C.
